{
  "source": "ChEMBL document CHEMBL3751672",
  "about": "“PPAR agonists based on stilbene and its bioisosteres: biological evaluation and docking studies” (Medchemcomm, 2015)",
  "assay_type_in_all_cases": "cell-based",
  "key": {"[1]": {"biological_target": "T1, Peroxisome proliferator-activated receptor alpha (Homo sapiens) (UniProt Q07869)", "T1 sequence (whole entry)": "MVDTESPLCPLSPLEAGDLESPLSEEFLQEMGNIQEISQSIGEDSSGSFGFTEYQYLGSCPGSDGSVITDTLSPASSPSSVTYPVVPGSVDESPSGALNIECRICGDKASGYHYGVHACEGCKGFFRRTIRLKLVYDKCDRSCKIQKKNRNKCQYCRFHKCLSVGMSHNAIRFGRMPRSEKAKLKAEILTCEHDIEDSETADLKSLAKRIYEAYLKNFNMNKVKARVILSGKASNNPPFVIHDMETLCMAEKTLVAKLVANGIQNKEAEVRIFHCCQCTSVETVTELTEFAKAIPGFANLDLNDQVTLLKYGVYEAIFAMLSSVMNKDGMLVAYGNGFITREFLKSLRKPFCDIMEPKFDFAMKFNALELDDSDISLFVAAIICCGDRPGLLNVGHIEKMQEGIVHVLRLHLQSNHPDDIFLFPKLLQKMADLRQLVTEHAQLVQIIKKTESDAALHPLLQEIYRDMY", "experiment": "Transactivation of human PPARalpha expressed in HEK293 cells at 150 uM incubated for 18 hrs by dual luciferase reporter gene assay relative to gemfibrozil"}, "[2]": {"biological_target": "T2, Peroxisome proliferator-activated receptor alpha (Homo sapiens, UniProt Q07869)", "T2 sequence (Q07869 whole entry)": "T1 sequence (whole entry)", "experiment": "Transactivation of human PPARalpha expressed in HEK293 cells incubated for 18 hrs by dual luciferase reporter gene assay"}, "[3]": {"biological_target": "T1, Peroxisome proliferator-activated receptor alpha (Homo sapiens)", "experiment": "Agonist activity at PPARalpha in human HepG2 cells assessed as increase in CPT1A gene expression at 10 uM incubated for 24 hrs by real time quantitative PCR method"}, "[4]": {"biological_target": "T1, Peroxisome proliferator-activated receptor alpha (Homo sapiens)", "experiment": "Agonist activity at PPARalpha in human HepG2 cells assessed as increase in CPT1A gene expression incubated for 24 hrs by real time quantitative PCR method"}, "[5]": {"biological_target": "T1, Peroxisome proliferator-activated receptor alpha (Homo sapiens)", "experiment": "Agonist activity at PPARalpha in human HepG2 cells assessed as increase in CPT1A gene expression at 100 uM incubated for 24 hrs by real time quantitative PCR method relative to gemfibrozil"}, "[6]": {"biological_target": "T1, Peroxisome proliferator-activated receptor alpha (Homo sapiens)", "experiment": "Agonist activity at PPARalpha in human HepG2 cells assessed as increase in CPT1A gene expression at EC50 incubated for 24 hrs by real time quantitative PCR method"}, "[7]": {"biological_target": "T1, Peroxisome proliferator-activated receptor alpha (Homo sapiens)", "experiment": "Agonist activity at PPARalpha in human HepG2 cells assessed as increase in CPT1A gene expression at 10 uM incubated for 24 hrs by real time quantitative PCR method relative to gemfibrozil"}},
  "note": "pEC50: −log10 of the molar value. The source made the active and inactive calls. The rule behind the calls is not given here.",
  "data": [
    {"smiles": "CC(C)c1ccc(/C=C/c2ccc(OCCCC(C)(C)C(=O)O)cc2)cc1", "values": [
      {"measurement": "Efficacy", "setting": "[1]", "result": 17, "unit": "%"}
    ]},
    {"smiles": "CC(C)(CCCOc1ccc(/C=C/c2ccccc2)cc1Cl)C(=O)O", "values": [
      {"measurement": "Efficacy", "setting": "[1]", "result": 46, "unit": "%"}
    ]},
    {"smiles": "Cc1ccc(/C=C/c2ccc(OCCCC(C)(C)C(=O)O)cc2)cc1", "values": [
      {"measurement": "Efficacy", "setting": "[1]", "result": 118, "unit": "%"},
      {"measurement": "pEC50", "setting": "[2]", "result": 5.48}
    ]},
    {"smiles": "CC(C)(CCCOc1ccc(/C=C/c2ccc(Cl)cc2Cl)cc1Cl)C(=O)O", "values": [
      {"measurement": "Efficacy", "setting": "[1]", "result": 20, "unit": "%"}
    ]},
    {"smiles": "COc1ccc(/C=C/c2ccc(OCCCC(C)(C)C(=O)O)cc2)cc1", "values": [
      {"measurement": "Efficacy", "setting": "[1]", "result": 164, "unit": "%"},
      {"measurement": "pEC50", "setting": "[2]", "result": 4.55}
    ]},
    {"smiles": "CC(C)(CCCOc1ccc(/C=C/c2ccc(C#N)cc2)cc1)C(=O)O", "values": [
      {"measurement": "Efficacy", "setting": "[1]", "result": 23, "unit": "%"}
    ]},
    {"smiles": "CC(C)(CCCOc1ccc(/C=C/c2ccc3ccccc3c2)cc1)C(=O)O", "values": [
      {"measurement": "Efficacy", "setting": "[1]", "result": 123, "unit": "%"},
      {"measurement": "pEC50", "setting": "[2]", "result": 4.05}
    ]},
    {"smiles": "CC(C)(CCCOc1ccc(/C=C/c2ccc(C(F)(F)F)cc2)cc1)C(=O)O", "values": [
      {"measurement": "Activity", "setting": "[3]", "result": "Active"},
      {"measurement": "Activity", "setting": "[4]", "result": "Dose-dependent effect"},
      {"measurement": "fold change (FC)", "setting": "[5]", "result": 2},
      {"measurement": "Efficacy", "setting": "[1]", "result": 205, "unit": "%"},
      {"measurement": "fold change (FC)", "setting": "[1]", "result": 2},
      {"measurement": "pEC50", "setting": "[2]", "result": 6.12}
    ]},
    {"smiles": "Cc1ccc(C)c(OCCCC(C)(C)C(=O)O)c1", "values": [
      {"measurement": "Activity", "setting": "[6]", "result": "Active"}
    ]},
    {"smiles": "CC(C)(CCCOc1ccc(/C=C/c2ccncc2)cc1)C(=O)O", "values": [
      {"measurement": "Efficacy", "setting": "[1]", "result": 115, "unit": "%"},
      {"measurement": "pEC50", "setting": "[2]", "result": 3.99}
    ]},
    {"smiles": "CC(C)(CCCOc1ccc(/C=C/c2ccccc2)cc1)C(=O)O", "values": [
      {"measurement": "fold change (FC)", "setting": "[7]", "result": 2},
      {"measurement": "Activity", "setting": "[4]", "result": "Dose-dependent effect"},
      {"measurement": "fold change (FC)", "setting": "[5]", "result": 6},
      {"measurement": "fold change (FC)", "setting": "[1]", "result": 2}
    ]},
    {"smiles": "CC(C)(CCCOc1ccc(/C=C/c2ccsc2)cc1)C(=O)O", "values": [
      {"measurement": "Efficacy", "setting": "[1]", "result": 152, "unit": "%"},
      {"measurement": "pEC50", "setting": "[2]", "result": 5.42}
    ]},
    {"smiles": "CC(C)(CCCOc1ccc(/C=C/c2ccc(Cl)cc2)cc1)C(=O)O", "values": [
      {"measurement": "Activity", "setting": "[3]", "result": "Active"},
      {"measurement": "Activity", "setting": "[4]", "result": "Dose-dependent effect"},
      {"measurement": "fold change (FC)", "setting": "[5]", "result": 2},
      {"measurement": "Efficacy", "setting": "[1]", "result": 227, "unit": "%"},
      {"measurement": "fold change (FC)", "setting": "[1]", "result": 2},
      {"measurement": "pEC50", "setting": "[2]", "result": 6.10}
    ]},
    {"smiles": "CC(C)(CCCOc1ccc(/C=C/c2ccc(Cl)cc2Cl)cc1)C(=O)O", "values": [
      {"measurement": "Efficacy", "setting": "[1]", "result": 32, "unit": "%"}
    ]},
    {"smiles": "CC(C)(CCCOc1ccc(/C=C/c2ccc(N)cc2)cc1)C(=O)O", "values": [
      {"measurement": "Efficacy", "setting": "[1]", "result": 29, "unit": "%"}
    ]}
  ]
}
